Reference: US20260355196A1, “INHIBITORS AND DEGRADERS OF PIP4K PROTEIN” (Larkspur Biosciences, Inc., priority 2023, published 2026)

biological target: T1, PIP4K2C (Homo sapiens, UniProt Q8TBX8); test: HiBiT PIP4K2C degradation assay in MOLT-4 cells (endogenous PIP4K2C C-terminally tagged with HiBiT); format: cell-based; parameters: untagged in primary human PBMCs and monocyte-derived dendritic cells; conditions: 6 hours of incubation time, rather than 24 hours; MOLT-4, top concentration 10 micromolar; read-out: HiBIT-degradation MOLT4 PIP4k2C DC50 (6 hours, marked *)
T1 sequence (Q8TBX8 1-421): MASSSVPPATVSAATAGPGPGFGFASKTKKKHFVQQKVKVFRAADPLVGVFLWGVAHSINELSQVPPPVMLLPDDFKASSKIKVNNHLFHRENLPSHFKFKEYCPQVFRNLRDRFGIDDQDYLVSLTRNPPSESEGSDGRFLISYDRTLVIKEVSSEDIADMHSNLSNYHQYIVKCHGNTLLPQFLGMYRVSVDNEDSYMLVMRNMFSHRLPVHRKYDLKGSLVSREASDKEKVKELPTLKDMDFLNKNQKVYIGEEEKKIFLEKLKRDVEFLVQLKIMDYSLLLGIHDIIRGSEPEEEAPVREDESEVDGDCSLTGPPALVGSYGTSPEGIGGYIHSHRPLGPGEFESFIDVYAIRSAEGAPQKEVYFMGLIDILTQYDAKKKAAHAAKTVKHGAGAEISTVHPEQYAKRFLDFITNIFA
Procedure, shortened: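 DC50 derived by Hill fit of luminescence from Nano-Glo HiBiT lytic detection. Cells were HiBiT knock-in MOLT-4 (C-terminal tag on endogenous PIP4K2C), exposed 6 h or 24 h at 37 C to compound, top concentration 10 micromolar, 3-fold steps, 10 points, duplicates.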

Row | DC50 [nM] | SMILES
1 | < 500 | O=C1CCC(Nc2ccc(C3CCN(CCC4CCN(C(=O)[C@@H]5CCC[C@H](Nc6ncc(F)c(-c7cccc(-n8ccccc8=O)c7)n6)C5)CC4)CC3)c(F)c2)C(=O)N1 (stereo partly drawn) [Compound 308, 3-((3-fluoro-4-(1-(2-(1-((1R,3S)-3-((5-fluoro-4-(3-(2-oxopyridin-1(2H)-yl)phenyl)pyrimidin-2-yl)amino)cyclohexane-1-carbonyl)piperidin-4-yl)ethyl)piperidin-4-yl)phenyl)amino)piperidine-2,6-dione]

same assay, conditions: 24 hours incubation, MOLT-4, top concentration 10 micromolar; read-out: HiBIT-degradation MOLT4 PIP4k2C 24 hours DC50

Row | DC50 [nM] | SMILES
2 | < 500 | O=C1CCC(n2c(=O)oc3cc(C4CCN(CC5CCN(CC(=O)N6CCC(Nc7ncc(Cl)c(-c8cccc(-c9ccc(F)cc9)c8)n7)CC6)CC5)CC4)ccc32)C(=O)N1 (centres unmarked) [Compound 294, 3-(6-(1-((1-(2-(4-((5-chloro-4-(4′-fluoro-[1,1′-biphenyl]-3-yl)pyrimidin-2-yl)amino)piperidin-1-yl)-2-oxoethyl)piperidin-4-yl)methyl)piperidin-4-yl)-2-oxobenzo[d]oxazol-3 (2H)-yl)piperidine-2,6-dione]
3 | < 500 | O=C1CCC(N2Cc3c(OC4CCN(C5CCCN(CC(=O)N6CCC(Nc7ncc(Cl)c(-c8cccc(-c9ccc(F)cc9)c8)n7)CC6)C5)CC4)cccc3C2=O)C(=O)N1 (centres unmarked) [Compound 296, 3-(4-((1′-(2-(4-((5-chloro-4-(4′-fluoro-[1,1′-biphenyl]-3-yl)pyrimidin-2-yl)amino)piperidin-1-yl)-2-oxoethyl)-[1,3′-bipiperidin]-4-yl)oxy)-1-oxoisoindolin-2-yl)piperidine-2,6-dione]
4 | < 500 | Cn1c(=O)n(C2CCC(=O)NC2=O)c2ccc(C3CCN(C4CCN(CCC(=O)N5CCC(Nc6ncc(Cl)c(-c7cccc(-c8ccc(F)cc8)c7)n6)CC5)CC4)CC3)cc21 (centres unmarked) [Compound 300, 3-(5-(1′-(3-(4-((5-chloro-4-(4′-fluoro-[1,1′-biphenyl]-3-yl)pyrimidin-2-yl)amino)piperidin-1-yl)-3-oxopropyl)-[1,4′-bipiperidin]-4-yl)-3-methyl-2-oxo-2,3-dihydro-1H-benzo[d]imidazol-1-yl)piperidine-2,6-dione]
5 | < 500 | Cn1c(=O)n(C2CCC(=O)NC2=O)c2ccc(C3CCN(CC4CCN(CC(=O)N[C@H]5CC[C@H](Nc6ncc(F)c(-c7cccc(-n8ccccc8=O)c7)n6)CC5)CC4)CC3)cc21 (stereo partly drawn) [Compound 301, trans-2-(4-((4-(1-(2,6-dioxopiperidin-3-yl)-3-methyl-2-oxo-2,3-dihydro-1H-benzo[d]imidazol-5-yl)piperidin-1-yl)methyl)piperidin-1-yl)-N-(4-((5-fluoro-4-(3-(2-oxopyridin-1(2H)-yl)phenyl)pyrimidin-2-yl)amino)cyclohexyl)acetamide]
6 | < 500 | O=C1CCC(n2c(=O)oc3cc(C4CCN(CC5CCN(CC(=O)N6CCC(Nc7ncc(F)c(-c8cccc(-n9ccccc9=O)c8)n7)CC6)CC5)CC4)ccc32)C(=O)N1 (centres unmarked) [Compound 303, 3-(6-(1-((1-(2-(4-((5-fluoro-4-(3-(2-oxopyridin-1(2H)-yl)phenyl)pyrimidin-2-yl)amino)piperidin-1-yl)-2-oxoethyl)piperidin-4-yl)methyl)piperidin-4-yl)-2-oxobenzo[d]oxazol-3 (2H)-yl)piperidine-2,6-dione]
7 | < 500 | Cn1nc(C2CCC(=O)NC2=O)c2ccc(C3CCN(CC4CCN(CC(=O)N[C@H]5CC[C@H](Nc6ncc(F)c(-c7cccc(-n8ccccc8=O)c7)n6)CC5)CC4)CC3)cc21 (stereo partly drawn) [Compound 304, trans-2-(4-((4-(3-(2,6-dioxopiperidin-3-yl)-1-methyl-1H-indazol-6-yl)piperidin-1-yl)methyl)piperidin-1-yl)-N-(4-((5-fluoro-4-(3-(2-oxopyridin-1(2H)-yl)phenyl)pyrimidin-2-yl)amino)cyclohexyl)acetamide]
8 | < 500 | O=C1CCC(Nc2ccc(N3CCC(N4CCC(C(=O)N[C@H]5CC[C@H](Nc6ncc(F)c(-c7cccc(-n8ccccc8=O)c7)n6)CC5)CC4)CC3)c(F)c2)C(=O)N1 (stereo partly drawn) [Compound 305, trans-1′-(4-((2,6-dioxopiperidin-3-yl)amino)-2-fluorophenyl)-N-(4-((5-fluoro-4-(3-(2-oxopyridin-1(2H)-yl)phenyl)pyrimidin-2-yl)amino)cyclohexyl)-[1,4′-bipiperidine]-4-carboxamide]
9 | > 5000 | O=C1CCC(Nc2ccc(C3CCN(CCC4CCN(C(=O)[C@H]5CCC[C@@H](Nc6ncc(F)c(-c7cccc(-n8ccccc8=O)c7)n6)C5)CC4)CC3)c(F)c2)C(=O)N1 (stereo partly drawn) [Compound 309, 3-((3-fluoro-4-(1-(2-(1-((1S,3R)-3-((5-fluoro-4-(3-(2-oxopyridin-1(2H)-yl)phenyl)pyrimidin-2-yl)amino)cyclohexane-1-carbonyl)piperidin-4-yl)ethyl)piperidin-4-yl)phenyl)amino)piperidine-2,6-dione]
10 | < 500 | O=C1CCC(Nc2ccc(C3CCN(CCC4CCN(C(=O)[C@@H]5CCC[C@H](Nc6ncc(F)c(-c7cccc(-n8ccccc8=O)c7)n6)C5)CC4)CC3(F)F)c(F)c2)C(=O)N1 (stereo partly drawn) [Compound 310, 3-[4-[3,3-difluoro-1-[2-[1-[(1R,3S)-3-[[5-fluoro-4-[3-(2-oxo-1-pyridyl)phenyl]pyrimidin-2-yl]amino]cyclohexanecarbonyl]-4-piperidyl]ethyl]-4-piperidyl]-3-fluoro-anilino]piperidine-2,6-dione]

Further lines, the compound ahead of its results:

Row | SMILES | DC50 [nM]
11 | O=C1CCC(Nc2ccc(N3CCC(N4CCC(C(=O)N[C@H]5CC[C@H](Nc6ncc(Cl)c(-c7cccc(-c8ccc(F)cc8)c7)n6)CC5)CC4)CC3)cc2)C(=O)N1 (stereo partly drawn) [Compound 285, trans-N-(4-((5-chloro-4-(4′-fluoro-[1,1′-biphenyl]-3-yl)pyrimidin-2-yl)amino)cyclohexyl)-1′-(4-((2,6-dioxopiperidin-3-yl)amino)phenyl)-[1,4′-bipiperidine]-4-carboxamide] | < 500
12 | Cn1c(=O)n(C2CCC(=O)NC2=O)c2ccc(C3CCN(CC4CCN(CC(=O)N5CCC(Nc6ncc(F)c(-c7cccc(-c8ccccc8)c7)n6)CC5)CC4)CC3)cc21 (centres unmarked) [Compound 286, 3-(5-(1-((1-(2-(4-((4-([1,1′-biphenyl]-3-yl)-5-fluoropyrimidin-2-yl)amino)piperidin-1-yl)-2-oxoethyl)piperidin-4-yl)methyl)piperidin-4-yl)-3-methyl-2-oxo-2,3-dihydro-1H-benzo[d]imidazol-1-yl)piperidine-2,6-dione] | < 500
13 | Cn1c(=O)n(C2CCC(=O)NC2=O)c2ccc(C3CCN(CC4CCN(CC(=O)N5CCC(Nc6ncc(Cl)c(-c7cccc(-c8ccc(F)cc8)c7)n6)CC5)CC4)CC3)cc21 (centres unmarked) [Compound 287, 3-(5-(1-((1-(2-(4-((5-chloro-4-(4′-fluoro-[1,1′-biphenyl]-3-yl)pyrimidin-2-yl)amino)piperidin-1-yl)-2-oxoethyl)piperidin-4-yl)methyl)piperidin-4-yl)-3-methyl-2-oxo-2,3-dihydro-1H-benzo[d]imidazol-1-yl)piperidine-2,6-dione] | < 500
14 | Cn1c(=O)n(C2CCC(=O)NC2=O)c2ccc(C3CCN(CC4CCN(CC(=O)N5CCC(Nc6ncc(F)c(-c7cccc(-c8ccc(F)cc8)c7)n6)CC5)CC4)CC3)cc21 (centres unmarked) [Compound 288, 3-(5-(1-((1-(2-(4-((5-fluoro-4-(4′-fluoro-[1,1′-biphenyl]-3-yl)pyrimidin-2-yl)amino)piperidin-1-yl)-2-oxoethyl)piperidin-4-yl)methyl)piperidin-4-yl)-3-methyl-2-oxo-2,3-dihydro-1H-benzo[d]imidazol-1-yl)piperidine-2,6-dione] | < 500
15 | Cn1nc(C2CCC(=O)NC2=O)c2ccc(C3CCN(C(=O)CN4CCC(O)(C(=O)N5CCC(Nc6ncc(Cl)c(-c7cccc(-c8ccc(F)cc8)c7)n6)CC5)CC4)CC3)cc21 (centres unmarked) [Compound 289, 3-(6-(1-(2-(4-(4-((5-chloro-4-(4′-fluoro-[1,1′-biphenyl]-3-yl)pyrimidin-2-yl)amino)piperidine-1-carbonyl)-4-hydroxypiperidin-1-yl)acetyl)piperidin-4-yl)-1-methyl-1H-indazol-3-yl)piperidine-2,6-dione] | < 500
16 | Cn1nc(C2CCC(=O)NC2=O)c2ccc(C3CCN(CC(=O)N4CCC(O)(C(=O)N5CCC(Nc6ncc(Cl)c(-c7cccc(-c8ccc(F)cc8)c7)n6)CC5)CC4)CC3)cc21 (centres unmarked) [Compound 290, 3-(6-(1-(2-(4-(4-((5-chloro-4-(4′-fluoro-[1,1′-biphenyl]-3-yl)pyrimidin-2-yl)amino)piperidine-1-carbonyl)-4-hydroxypiperidin-1-yl)-2-oxoethyl)piperidin-4-yl)-1-methyl-1H-indazol-3-yl)piperidine-2,6-dione] | < 500
17 | O=C1CCC(n2c(=O)oc3c(C4CCN(C(=O)CN5CCC(C(=O)N6CCC(Nc7ncc(Cl)c(-c8cccc(-c9ccc(F)cc9)c8)n7)CC6)CC5)CC4)cccc32)C(=O)N1 (centres unmarked) [Compound 293, 3-(7-(1-(2-(4-(4-((5-chloro-4-(4′-fluoro-[1,1′-biphenyl]-3-yl)pyrimidin-2-yl)amino)piperidine-1-carbonyl)piperidin-1-yl)acetyl)piperidin-4-yl)-2-oxobenzo[d]oxazol-3 (2H)-yl)piperidine-2,6-dione] | < 500
